# From ChEMBL document CHEMBL4130580, “Bibenzyl-Based Meroterpenoid Enantiomers from the Chinese Liverwort Radula sumatrana” (J Nat Prod, 2017)
# Key:
# PC-3 = assay: Cytotoxicity against human PC3 cells assessed as reduction in cell viability by MTT assay
# SMMC-7721 = assay: Cytotoxicity against human SMMC7721 cells assessed as reduction in cell viability by MTT assay
# MCF7 = assay: Cytotoxicity against human MCF7 cells assessed as reduction in cell viability by MTT assay
SMILES,IC50 (PC-3),IC50 (SMMC-7721),IC50 (MCF7)
CC12CCC3C1C(c1c(CCc4ccccc4)cc(O)cc1O2)C3(C)C (centres undefined),19.6 µM,14.5 µM,14 µM
C=C(C)C1CCC2(C)Oc3cc(O)cc(CCc4ccccc4)c3C1C2O (racemic),> 40 µM,> 40 µM,38.2 µM
CC12CCc3cc(CCc4ccccc4)cc(O)c3C1C2 (racemic),> 40 µM,34.2 µM,24.7 µM
